Test results from the kinase profiling compilation of Christmann-Franck et al. (2016).
Values joined by “and” are separate entries in the source; they are usually repeats but may differ in a detail not shown here. Equal values may be shown once.

Assays:
Experiment in all cases: radiometric filter-binding kinase assay, Kinase HotSpot
Details in all cases: compound 0.5 µM; ATP 10 µM
ADRBK1 (human) = ADRBK1 (human) (UniProt P25098)
AKT2 (human) = AKT2 (human) (UniProt P31751)
CAMK1 (human) = CAMK1 (human) (UniProt Q14012)
CAMK2A (human) = CAMK2A (human) (UniProt Q9UQM7)
CDK5 CDK5R1 p35 (human) = CDK5 CDK5R1 p35 (human) (UniProt Q00535+Q15078)
CDK6 CCND1 (human) = CDK6 CCND1 (human) (UniProt Q00534+P24385)
CLK2 (human) = CLK2 (human) (UniProt P49760)
CSNK1D (human) = CSNK1D (human) (UniProt P48730)
DAPK3 (human) = DAPK3 (human) (UniProt O43293)
DMPK (human) = DMPK (human) (UniProt Q09013)
DYRK4 (human) = DYRK4 (human) (UniProt Q9NR20)
GRK4 (human) = GRK4 (human) (UniProt P32298)
HIPK4 (human) = HIPK4 (human) (UniProt Q8NE63)
IKBKE (human) = IKBKE (human) (UniProt Q14164)
KIT (human) = KIT (human) (UniProt P10721)
LCK (human) = LCK (human) (UniProt P06239)
MAP3K10 (human) = MAP3K10 (human) (UniProt Q02779)
MAP3K14 (human) = MAP3K14 (human) (UniProt Q99558)
MAP3K5 (human) = MAP3K5 (human) (UniProt Q99683)
MAP4K2 (human) = MAP4K2 (human) (UniProt Q12851)
MAPK13 (human) = MAPK13 (human) (UniProt O15264)
MARK1 (human) = MARK1 (human) (UniProt Q9P0L2)
MET (human) = MET (human) (UniProt P08581)
MINK1 (human) = MINK1 (human) (UniProt Q8N4C8)
MUSK (human) = MUSK (human) (UniProt O15146)
MYLK (human) = MYLK (human) (UniProt Q15746)
NTRK3 (human) = NTRK3 (human) (UniProt Q16288)
NUAK1 (human) = NUAK1 (human) (UniProt O60285)
PAK2 (human) = PAK2 (human) (UniProt Q13177)
PAK7 (human) = PAK7 (human) (UniProt Q9P286)
PLK2 (human) = PLK2 (human) (UniProt Q9NYY3)
PRKCE (human) = PRKCE (human) (UniProt Q02156)
PRKG1 (human) = PRKG1 (human) (UniProt Q13976)
RPS6KA2 KD1 KD2 (human) = RPS6KA2 KD1 KD2 (human) (UniProt Q15349)
RPS6KB1 (human) = RPS6KB1 (human) (UniProt P23443)
SRPK1 (human) = SRPK1 (human) (UniProt Q96SB4)
STK10 (human) = STK10 (human) (UniProt O94804)
STK17A (human) = STK17A (human) (UniProt Q9UEE5)
STK25 (human) = STK25 (human) (UniProt O00506)
SYK (human) = SYK (human) (UniProt P43405)
TAOK1 (human) = TAOK1 (human) (UniProt Q7L7X3)
TAOK2 (human) = TAOK2 (human) (UniProt Q9UL54)

Chain of PRKG1 (human) (Q13976 whole entry, looked up): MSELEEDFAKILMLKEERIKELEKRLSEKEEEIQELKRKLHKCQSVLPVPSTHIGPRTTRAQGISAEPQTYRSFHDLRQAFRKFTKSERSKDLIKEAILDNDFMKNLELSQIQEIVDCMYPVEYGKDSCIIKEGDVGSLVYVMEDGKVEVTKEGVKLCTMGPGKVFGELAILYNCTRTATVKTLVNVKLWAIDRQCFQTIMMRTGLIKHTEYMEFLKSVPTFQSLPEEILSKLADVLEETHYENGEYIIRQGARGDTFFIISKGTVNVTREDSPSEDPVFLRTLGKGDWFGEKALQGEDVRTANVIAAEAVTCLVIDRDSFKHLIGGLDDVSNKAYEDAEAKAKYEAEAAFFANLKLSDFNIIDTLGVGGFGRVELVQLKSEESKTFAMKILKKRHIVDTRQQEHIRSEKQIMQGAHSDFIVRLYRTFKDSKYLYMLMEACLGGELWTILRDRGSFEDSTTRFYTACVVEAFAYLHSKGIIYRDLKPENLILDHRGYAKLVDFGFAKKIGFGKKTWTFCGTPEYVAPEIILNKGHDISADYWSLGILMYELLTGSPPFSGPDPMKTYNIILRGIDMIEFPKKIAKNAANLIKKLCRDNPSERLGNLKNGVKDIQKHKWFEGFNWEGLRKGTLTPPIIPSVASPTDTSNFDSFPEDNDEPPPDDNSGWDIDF
Chain of KIT (human) (P10721 whole entry, looked up): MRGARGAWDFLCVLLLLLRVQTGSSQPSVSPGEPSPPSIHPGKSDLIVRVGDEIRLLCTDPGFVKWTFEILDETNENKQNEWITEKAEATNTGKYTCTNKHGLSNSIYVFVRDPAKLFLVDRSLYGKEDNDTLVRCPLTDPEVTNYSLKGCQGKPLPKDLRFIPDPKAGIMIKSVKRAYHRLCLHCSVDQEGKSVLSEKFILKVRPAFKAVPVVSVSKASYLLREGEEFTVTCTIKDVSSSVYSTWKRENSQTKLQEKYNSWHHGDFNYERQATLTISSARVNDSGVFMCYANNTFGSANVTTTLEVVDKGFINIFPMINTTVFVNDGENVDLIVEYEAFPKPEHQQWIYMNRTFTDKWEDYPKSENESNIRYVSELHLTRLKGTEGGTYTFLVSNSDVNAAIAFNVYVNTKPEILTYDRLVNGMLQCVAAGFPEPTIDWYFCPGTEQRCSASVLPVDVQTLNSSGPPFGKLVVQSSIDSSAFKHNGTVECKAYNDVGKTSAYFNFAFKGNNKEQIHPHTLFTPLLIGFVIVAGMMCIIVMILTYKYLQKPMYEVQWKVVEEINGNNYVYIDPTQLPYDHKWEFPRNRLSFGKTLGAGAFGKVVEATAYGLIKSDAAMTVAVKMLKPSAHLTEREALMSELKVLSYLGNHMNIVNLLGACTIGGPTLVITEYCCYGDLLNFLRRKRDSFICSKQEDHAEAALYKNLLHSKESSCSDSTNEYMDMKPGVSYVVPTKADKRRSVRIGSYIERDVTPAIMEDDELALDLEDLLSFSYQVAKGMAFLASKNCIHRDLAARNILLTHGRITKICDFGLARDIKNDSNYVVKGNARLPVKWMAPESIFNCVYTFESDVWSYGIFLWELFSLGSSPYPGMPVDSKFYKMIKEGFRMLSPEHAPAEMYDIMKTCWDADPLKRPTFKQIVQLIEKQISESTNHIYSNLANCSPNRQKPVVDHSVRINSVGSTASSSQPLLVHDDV
Chain of MINK1 (human) (Q8N4C8 whole entry, looked up): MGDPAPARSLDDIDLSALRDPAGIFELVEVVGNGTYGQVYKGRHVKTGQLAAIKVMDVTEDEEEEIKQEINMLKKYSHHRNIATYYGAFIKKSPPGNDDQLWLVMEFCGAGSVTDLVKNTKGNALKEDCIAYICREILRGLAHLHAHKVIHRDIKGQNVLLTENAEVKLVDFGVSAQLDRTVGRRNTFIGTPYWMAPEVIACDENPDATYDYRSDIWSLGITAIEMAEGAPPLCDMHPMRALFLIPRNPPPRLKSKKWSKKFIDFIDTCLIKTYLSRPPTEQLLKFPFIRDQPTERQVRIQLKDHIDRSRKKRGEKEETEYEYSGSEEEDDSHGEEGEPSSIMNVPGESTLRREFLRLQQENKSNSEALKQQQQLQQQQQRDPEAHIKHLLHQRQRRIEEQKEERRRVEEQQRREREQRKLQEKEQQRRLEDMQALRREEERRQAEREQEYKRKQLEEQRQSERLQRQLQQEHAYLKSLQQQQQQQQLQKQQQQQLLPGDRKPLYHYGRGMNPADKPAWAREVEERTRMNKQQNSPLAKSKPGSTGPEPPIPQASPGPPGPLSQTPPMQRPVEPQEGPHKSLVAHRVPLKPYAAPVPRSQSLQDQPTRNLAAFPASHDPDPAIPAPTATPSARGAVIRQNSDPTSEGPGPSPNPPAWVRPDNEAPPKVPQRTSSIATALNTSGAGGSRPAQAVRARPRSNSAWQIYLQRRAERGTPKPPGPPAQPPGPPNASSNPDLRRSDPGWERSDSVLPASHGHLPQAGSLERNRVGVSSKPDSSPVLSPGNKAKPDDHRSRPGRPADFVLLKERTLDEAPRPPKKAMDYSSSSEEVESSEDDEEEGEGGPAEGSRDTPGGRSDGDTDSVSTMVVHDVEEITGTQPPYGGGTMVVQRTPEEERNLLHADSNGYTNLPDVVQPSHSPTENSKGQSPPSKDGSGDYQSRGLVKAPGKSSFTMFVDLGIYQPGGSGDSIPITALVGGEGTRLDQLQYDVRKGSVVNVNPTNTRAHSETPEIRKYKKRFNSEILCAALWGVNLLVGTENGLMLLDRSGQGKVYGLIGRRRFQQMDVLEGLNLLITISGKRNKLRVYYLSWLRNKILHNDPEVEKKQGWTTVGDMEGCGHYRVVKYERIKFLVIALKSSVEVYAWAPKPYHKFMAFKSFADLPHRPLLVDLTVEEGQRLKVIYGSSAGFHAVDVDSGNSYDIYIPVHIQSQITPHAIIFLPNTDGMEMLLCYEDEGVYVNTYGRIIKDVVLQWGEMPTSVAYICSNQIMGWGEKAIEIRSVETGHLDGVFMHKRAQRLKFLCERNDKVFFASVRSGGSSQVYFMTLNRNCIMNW
Chain of PAK2 (human) (Q13177 whole entry, looked up): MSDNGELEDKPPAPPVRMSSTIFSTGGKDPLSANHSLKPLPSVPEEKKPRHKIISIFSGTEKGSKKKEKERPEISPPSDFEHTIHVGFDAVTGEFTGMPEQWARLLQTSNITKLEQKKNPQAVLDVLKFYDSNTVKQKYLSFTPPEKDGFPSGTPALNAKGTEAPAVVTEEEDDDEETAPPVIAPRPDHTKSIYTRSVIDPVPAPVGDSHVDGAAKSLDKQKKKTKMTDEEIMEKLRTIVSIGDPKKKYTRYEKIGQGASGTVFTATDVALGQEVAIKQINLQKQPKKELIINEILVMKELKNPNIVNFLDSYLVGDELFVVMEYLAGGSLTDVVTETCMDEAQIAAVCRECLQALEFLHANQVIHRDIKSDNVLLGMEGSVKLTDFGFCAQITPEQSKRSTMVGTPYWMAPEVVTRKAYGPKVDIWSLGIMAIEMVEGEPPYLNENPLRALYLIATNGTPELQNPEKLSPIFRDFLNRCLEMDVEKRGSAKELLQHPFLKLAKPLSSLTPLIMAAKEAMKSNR
Chain of IKBKE (human) (Q14164 whole entry, looked up): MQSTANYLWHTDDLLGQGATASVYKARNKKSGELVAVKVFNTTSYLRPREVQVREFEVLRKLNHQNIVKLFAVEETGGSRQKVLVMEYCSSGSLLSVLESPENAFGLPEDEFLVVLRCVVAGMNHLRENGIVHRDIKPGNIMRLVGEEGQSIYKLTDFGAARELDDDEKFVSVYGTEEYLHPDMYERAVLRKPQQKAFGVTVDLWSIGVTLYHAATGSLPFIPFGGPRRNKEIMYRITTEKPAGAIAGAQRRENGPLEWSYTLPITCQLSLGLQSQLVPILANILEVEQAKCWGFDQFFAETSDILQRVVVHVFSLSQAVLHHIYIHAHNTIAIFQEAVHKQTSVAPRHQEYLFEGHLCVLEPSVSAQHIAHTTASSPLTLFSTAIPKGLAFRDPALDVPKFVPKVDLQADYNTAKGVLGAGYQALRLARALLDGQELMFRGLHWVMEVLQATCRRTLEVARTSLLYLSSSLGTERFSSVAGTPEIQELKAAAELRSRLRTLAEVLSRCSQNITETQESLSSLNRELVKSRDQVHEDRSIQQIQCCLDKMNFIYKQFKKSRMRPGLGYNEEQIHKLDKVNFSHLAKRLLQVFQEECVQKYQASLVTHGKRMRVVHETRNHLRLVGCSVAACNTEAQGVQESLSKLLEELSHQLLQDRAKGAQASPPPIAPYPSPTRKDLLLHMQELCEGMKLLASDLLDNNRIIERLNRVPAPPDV
Chain of STK17A (human) (Q9UEE5 whole entry, looked up): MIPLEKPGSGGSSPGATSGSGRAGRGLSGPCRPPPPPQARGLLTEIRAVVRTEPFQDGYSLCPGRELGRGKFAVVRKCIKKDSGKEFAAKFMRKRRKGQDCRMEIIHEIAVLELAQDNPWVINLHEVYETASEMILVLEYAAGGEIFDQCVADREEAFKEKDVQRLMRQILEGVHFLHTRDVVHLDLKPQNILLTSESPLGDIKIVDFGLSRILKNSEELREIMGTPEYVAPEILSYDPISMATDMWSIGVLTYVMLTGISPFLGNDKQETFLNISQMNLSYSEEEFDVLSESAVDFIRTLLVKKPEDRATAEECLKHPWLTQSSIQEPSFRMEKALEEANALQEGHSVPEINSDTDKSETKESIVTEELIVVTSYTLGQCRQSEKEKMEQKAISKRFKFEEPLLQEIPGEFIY
Chain of CAMK1 (human) (Q14012 whole entry, looked up): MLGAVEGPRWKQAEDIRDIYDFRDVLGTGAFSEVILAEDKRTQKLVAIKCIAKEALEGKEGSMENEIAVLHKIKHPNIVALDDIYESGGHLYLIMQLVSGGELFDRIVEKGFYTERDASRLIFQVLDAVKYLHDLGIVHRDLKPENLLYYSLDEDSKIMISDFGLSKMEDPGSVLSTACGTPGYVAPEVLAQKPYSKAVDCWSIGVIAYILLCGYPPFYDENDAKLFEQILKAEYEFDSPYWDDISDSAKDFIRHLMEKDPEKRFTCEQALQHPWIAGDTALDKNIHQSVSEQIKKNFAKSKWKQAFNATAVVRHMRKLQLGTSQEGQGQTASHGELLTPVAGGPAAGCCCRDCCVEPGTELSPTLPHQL

Cc1cc2ncc(-c3ccccc3)nc2cc1C
residual activity (ADRBK1 (human)): 92.5%
residual activity (AKT2 (human)): 99.7%
residual activity (CAMK1 (human)): 96.2%
residual activity (CAMK2A (human)): 98.4%
residual activity (CDK5 CDK5R1 p35 (human)): 89.1%
residual activity (CDK6 CCND1 (human)): 87.1%
residual activity (CLK2 (human)): 102%
residual activity (CSNK1D (human)): 90.7%
residual activity (DAPK3 (human)): 90.3%
residual activity (DMPK (human)): 102%
residual activity (DYRK4 (human)): 90.3%
residual activity (GRK4 (human)): 94.9%
residual activity (HIPK4 (human)): 120%
residual activity (IKBKE (human)): 101%
residual activity (KIT (human)): 63.5%
residual activity (LCK (human)): 99.5%
residual activity (MAP3K10 (human)): 97.8%
residual activity (MAP3K14 (human)): 112%
residual activity (MAP3K5 (human)): 107%
residual activity (MAP4K2 (human)): 113%
residual activity (MAPK13 (human)): 107%
residual activity (MARK1 (human)): 106%
residual activity (MET (human)): 95.1%
residual activity (MINK1 (human)): 91.8%
residual activity (MUSK (human)): 102%
residual activity (MYLK (human)): 102%
residual activity (NTRK3 (human)): 88.2%
residual activity (NUAK1 (human)): 92.3%
residual activity (PAK2 (human)): 99.3%
residual activity (PAK7 (human)): 96.9%
residual activity (PLK2 (human)): 95%
residual activity (PRKCE (human)): 99.6%
residual activity (PRKG1 (human)): 86.2% and 93.7%
residual activity (RPS6KA2 KD1 KD2 (human)): 92.5%
residual activity (RPS6KB1 (human)): 88.2%
residual activity (SRPK1 (human)): 103%
residual activity (STK10 (human)): 90.7%
residual activity (STK17A (human)): 80%
residual activity (STK25 (human)): 92.5%
residual activity (SYK (human)): 97.4%
residual activity (TAOK1 (human)): 94.3%
residual activity (TAOK2 (human)): 105%

O=C(NC(NC(=S)Nc1ccc(F)c([N+](=O)[O-])c1)C(Cl)(Cl)Cl)C(c1ccccc1)c1ccccc1 (stereo not drawn)
residual activity (ADRBK1 (human)): 79.5%
residual activity (AKT2 (human)): 91.6%
residual activity (CAMK1 (human)): 93.1%
residual activity (CAMK2A (human)): 96%
residual activity (CDK6 CCND1 (human)): 101%
residual activity (CLK2 (human)): 93.5%
residual activity (CSNK1D (human)): 105%
residual activity (DAPK3 (human)): 103%
residual activity (DMPK (human)): 85.5%
residual activity (DYRK4 (human)): 104%
residual activity (GRK4 (human)): 101%
residual activity (HIPK4 (human)): 104%
residual activity (IKBKE (human)): 106%
residual activity (KIT (human)): 97.2%
residual activity (LCK (human)): 91.8%
residual activity (MAP3K10 (human)): 98.9%
residual activity (MAP3K14 (human)): 92.1%
residual activity (MAP3K5 (human)): 97.1%
residual activity (MAP4K2 (human)): 111%
residual activity (MAPK13 (human)): 107%
residual activity (MARK1 (human)): 101%
residual activity (MET (human)): 101%
residual activity (MINK1 (human)): 110%
residual activity (MUSK (human)): 106%
residual activity (MYLK (human)): 99.6%
residual activity (NTRK3 (human)): 108%
residual activity (NUAK1 (human)): 95.3%
residual activity (PAK2 (human)): 100%
residual activity (PAK7 (human)): 104%
residual activity (PLK2 (human)): 92.9%
residual activity (PRKCE (human)): 109%
residual activity (PRKG1 (human)): 100% and 109%
residual activity (RPS6KA2 KD1 KD2 (human)): 101%
residual activity (RPS6KB1 (human)): 91.9%
residual activity (SRPK1 (human)): 99.3%
residual activity (STK10 (human)): 108%
residual activity (STK17A (human)): 99.8%
residual activity (STK25 (human)): 96.2%
residual activity (SYK (human)): 104%
residual activity (TAOK1 (human)): 104%
residual activity (TAOK2 (human)): 103%
